Experimental data from patent publication US20100281567A1, “TRANSGENIC PLANTS HAVING ALTERED LEVELS OF AROMATIC AMINO ACIDS AND METABOLITES DERIVED THEREFROM” (priority 2007, published 2010).

How the values were obtained:
Format in all cases: in vivo, Arabidopsis thaliana
[1] = test system: Arabidopsis plants; assay: Effect of the tryptophan analog 5-methyl tryptophan on growth of transgenic plants; conditions: plants p17, p9 and p5 expressing 35S:PRO-TP-PheA*-3HA; 100 μM, three weeks
Description: FIG. 10 illustrates the effect of tryptophan analog on transgenic plants expressing: (i) the 35S:PRO-TP-PheA*-3HA gene (p5, p9; p17); (ii) dominant mutation, resistant to tryptophan analogs due to high levels of tryptophan (5× normal) and anthranilate synthase (2× normal), amt1-1; (iii) control plants expressing an empty Ti vector (con); and (iv) wild type Arabidopsis Colombia ecotype (col). FIG. 10A: Photograph of plants growing for three weeks on zero and 100 μM 5-methyl tryptophan (5MT). FIG. 10B: Quantitative analysis of the number of seedlings whose growth was arrested by 5MT.
To evaluate the biosynthesis level of tryptophan, the effects of tryptophan analog on the transgenic plants of the present invention and on positive-control and control plants were examined. Plants used were as follows: i) plants of the present invention transformed with the 35S:PRO-TP-PheA*-3HA construct; (ii) positive-control transgenic plants having the dominant mutation amt1-1, which are resistant to tryptophan analogs due to high levels of tryptophan (5× normal) and anthranilate synthase (2× normal), the first enzyme of tryptophan biosynthesis; (iii) control plants expressing an empty Ti vector; and (iv) wild type Arabidopsis Colombia ecotype (col). Plants were grown for three weeks on zero and 100 μM 5-methyl tryptophan (5MT).

[2] = test system: Arabidopsis plants; assay: Effect of the HPPD inhibitor Isoxaflutole on growth of control and transgenic Arabidopsis plants; conditions: 10 ppb Isoxaflutole in MS medium
Description: Plants were grown on MS medium in the presence of 10 ppb Isoxaflutole. […] FIG. 9A: Chlorophyll content. FIG. 9B: Photograph of the plants.
Western blot analysis was performed with anti-HA tag antibodies, in order to identify the mutated plants which are translated the chemeric gene (Stepansky A and Galili G 2003 Plant Physiol 133, 1407-1415). Additionally, T2 generation plants were examined and lines with a single insertion gene were selected based on 3:1 genetic segregation. For testing the growth of the transgenic plants producing elevated concentrations of the compounds of the invention, homozygous PheA* plants were germinated on regular Nitch medium. The 4-Hydroxy-phenylpyruvate dioxygenase (HPPD) inhibitor Isoxaflutole was used as previously described (Rippert P et al. 2004 Plant Physiol., 134:92-100).
Tyrosine is catabolized in plants to a number of metabolites including hydroxyl-phenylpyruvate (p-HPP), homogentistic acid (HGA) and tocopherols. One of the enzymes in the Tyr catabolism pathways is 4-Hydroxy-phenylpyruvate dioxygenase (HPPD), which catalyzes the conversion of p-HPP to HGA. HGA is derived exclusively from the catabolism of tyrosine and is also a substrate for a number of other metabolites, such as tocopherols. […]

[3] = test system: Arabidopsis plants; assay: Sensitivity of germination to external application of phenylalanine; conditions: PheA* genotypes compared to control genotype; 4 mM phenylalanine in medium
Description: FIG. 11A: Morphological phenotype of the control genotype (a, e) and the PheA* expressing genotypes p5 (b, f), p9 (c, g) and p17 (d, h). Plants were at the age of 10 days (a-d) and two months (e-f). FIG. 11B: Seeds of the above control and transgenic plants were germinated on media lacking (left) or containing (right) 4 mM Phe.
Amino acids are generally toxic to plants when added externally at relatively high concentrations. We therefore also used this trait to further confirm that the PheA* plants overproduce phenylalanine, by testing for sensitivity to external application of phenylalanine.

## Cc1ccc2[nH]cc(C[C@H](N)C(=O)O)c2c1 [5MT, 5-methyl tryptophan]
[1]
  growth of plants: strongly inhibited

## CS(=O)(=O)c1cc(C(F)(F)F)ccc1C(=O)c1cnoc1C1CC1 [Isoxaflutole]
[2]; control plants expressing an empty Ti plasmid
  chlorotic symptoms: developed chlorotic symptoms
[2]; transgenic plants expressing 35S:PRO-TP-PheA*-3HA
  chlorotic symptoms: remained green

## N[C@@H](Cc1ccccc1)C(=O)O [phenylalanine]
[3]
  germination: significantly inhibited
